Here are results for four compounds from US20140066449A1, “DIPYRIDINIUM DERIVATIVES” (SABREPHARM LIMITED, priority 2011, published 2014).

Usually IC50 stands for the concentration needed to halve the response being measured.

Series [1] concerns MCF-7 breast adenocarcinoma. Briefly: MTT in vitro cytotoxicity, MCF-7. The format is cell-based, human. The conditions noted are these: MCF-7, 10 day exposure. The protocol: (§1) All were stored in the dark at 4° C. An accurately weighed amount of each compound was dissolved in DMSO and Hank's Balanced Salt Solution (Sigma) according to Table 2 below:
(§2) Further dilutions were made in complete RPMI1640 cell culture medium (RPMI1640 cell culture medium supplemented with 10% foetal bovine serum, 1 mM L-glutamine, and 2 mM sodium pyruvate (all from Sigma)).
(§3) H460 non-small cell lung adenocarcinoma, HT-29 colon adenocarcinoma and MCF-7 breast adenocarcinoma (ECACC, Salisbury, Wiltshire) were used for analysis. Cells were cultured in complete RPMI1640 cell culture medium, and maintained as monolayer cultures at 37° C. in a humidified 5% CO2 environment.
(§4) Tumour cell growth inhibition was assessed using the MTT assay with a standard 96 hour plus an extended 10 day incubation. For the 96 hour assay 1×10^4 cells were inoculated into each well of a 96-well plate and incubated overnight at 37° C. in a humidified atmosphere containing 5% CO2 to give time to adhere to the wells and form a monolayer. For the 10 day incubation, 1×102 (H460 and HT-29) and 1×103 (MCF-7) cells were inoculated. The next day, culture medium was removed from each well and replaced with cell culture media for the untreated control, or media containing compound, and the plates then incubated for a further 96 hours or 10 days. […] After 96 hours or 10 days culture medium was removed and 200 μL of 0.5 mgmL-1 MTT solution (Sigma) in complete medium added to each well. Following a further 4 hours incubation, the solution was removed from each well and 150 μL of DMSO added to solubilise the formazan crystals resulting from MTT conversion. Absorbance values for the resulting solutions were read at 550 nm on a Multiskan Ex microplate reader (Thermo Fisher, Loughborough, UK) and cell survival calculated as the absorbance of treated cells divided by the control. Results are expressed in terms of IC50 values (i.e. concentration of compound required to kill 50% of cells), which were determined manually in Microsoft Excel from plots of concentration versus percentage cell survival, and all experiments were performed in triplicate.

Series [2] is described as follows: Redox potential study, square wave voltammetry. The format is physicochemical. The conditions noted are these: 0.1 mol dm-3 LiNTf2, 20° C., first scan. The protocol:
BioAnalytical Systems CV50W potentiostat (from BAS Inc., USA)
Square wave voltammetry (4 mV step, 25 mV pulse, 10 Hz SW frequency)
3 mm diameter glassy carbon working electrode (from BAS)
3 mm diameter glassy carbon counter electrode (from BAS)
Saturated calomel reference electrode (SCE, from Sycopel Scientific Ltd., UK)
0.1 mol dm-3 lithium bis(trifluoromethanesulphonyl)imide ((LiNTf2)CAS 90076-65-6, from 3M)
Voltammograms were recorded from 0.5 V to −1.2 V in deoxygenated solutions of the Compounds.

Series [3] has as its system MCF-7 Human Breastadenocarclnoma Xenograft. Put plainly: MCF-7 xenograft model study. Format: in vivo, mice. The source says: Evaluation of the Efficacy of the Compounds C & D (Examples 2 & 3 Respectively) in the MCF-7 Human Breastadenocarclnoma Xenograft Model
Series [4] concerns HT-29 colon adenocarcinoma. Put plainly: MTT in vitro cytotoxicity, HT-29. The format is cell-based. The conditions noted are these: HT-29, 10 day exposure. On the procedure: as §1, §2, §3, §4
In series [5] the test system is H460 non-small cell lung adenocarcinoma. Put plainly: MTT in vitro cytotoxicity, H460. The conditions noted are these: H460, 10 day exposure. The format is cell-based. The protocol:
as §1, §2, §3, §4

Series [6] deals with human mitochondria isolated from HEK293 cells. Put plainly: ROS production in isolated mitochondria (DCFDA). Format: biochemical. The conditions noted are these: isolated HEK293 mitochondria, 100 μM, 120 mins. On the procedure: The ability of test compounds to impact ROS production in isolated mitochondria after 120 mins exposure was assessed.
Mitochondria were isolated from harvested human embryonic kidney (HEK293) cells (20×10^6) using a commercial kit (Thermo Scientific) before re-suspension in PBS to a final volume of 800 μL. […] Independent experiments (each assessing the impact of all four compounds along with a positive [AAPH; 5.0 mM] and vehicle control) were repeated three times.

For a further series, the system named is MCF7 [Breast]. Briefly: Combination with cisplatin, MCF-7. The format is cell-based, human.
The next series deals with M 14 [melanoma]. Put plainly: Combination with cisplatin, M14. Format: cell-based.
The next series deals with A2780 [ovarian]. Put plainly: Combination with cisplatin, A2780. The format is cell-based.
The test system of series [7] is A2780/cis [cisplatin ovarian resistant line]. Briefly: Combination with cisplatin, A2780/cis. Format: cell-based.
The mark [8] stands for this setting: highest concentration 30 μM, read-out: IC50 Run 1.
Where [9] appears, read: highest concentration 100 μM, read-out: IC50 Run 2.
Setting [10] is: highest concentration 100 μM, read-out: IC50 Run 3.
Where [11] appears, read: 200 mg/kg, i.v., d 0, 2, 4, 7, 9 & 11.
[12] abbreviates: cisplatin 1 μM alone (compound 0 μM).
The mark [13] stands for this setting: mean of runs, read-out: IC50 Mean.
The mark [14] stands for this setting: cisplatin 3 μM alone (compound 0 μM).
The mark [15] stands for this setting: cisplatin 10 μM alone (compound 0 μM).

Where “and” joins values, the source holds several entries; their conditions need not be identical. Equal values may be shown once. Read-outs that look alike come from different tables or passages of the source.

With “3-((2-(2-methoxy-ethoxy)(ethoxy)n)methyl)-6,7-dihydrodipyrido[1,2-a:2′,1′-c]pyrazine-5,8-diium bistrifluoromethanesulfonate [Compound C]”, the IC50 is > 30000 nM in [1] (setting [8]); 97000 nM in series [1] (setting [9]); > 100000 nM in [1] (setting [10]); > 30000 nM in series [4] (setting [8]); 82000 nM in series [4] (setting [9]); 78000 nM in [4] (setting [10]). The IC50 is > 30000 nM in series [5] (setting [8]), > 100000 nM in [5] (setting [9]) and > 100000 nM in series [5] (setting [10]). For the same compound, the “Reduction potential 1” value in [2] is listed as −0.470 V vs. SCE. Moreover, the “Reduction potential 2” value in series [2] is given as −0.803 V vs. SCE. The “Growth delay” value in series [3] (setting [11]) came out at 3.1 days. Also, the “Maximum % weight loss” value in series [3] (setting [11]) was determined as 0%.

On to “3-(((2-(2-methoxyethoxy)(ethoxy)n)ethyl) hexane-1,6-diyldicarbamate)methyl)-6,7-dihydrodipyrido[1,2-a:2′,1′-c]pyrazine-5,8-diium bistrifluoromethanesulfonate [G]”, for which the “rank order of efficacy (ROS production)” value in series [6] is reported as “F>G>B>A”. Also, the “ROS production relative to vehicle treatment” value in series [6] (room temperature) was “robustly increased ROS production”.

In the case of “3-(((2-(2-methoxyethoxy)(ethoxy)n)ethyl) hexane-1,6-diyldicarbamate)methyl)-6,7-dihydrodipyrido[1,2-a:2′,1′-c]pyrazine-5,8-diium bistrifluoromethanesulfonate [Compound D]”, the IC50 in [1] (setting [8]) is > 30000 nM; in [1] (setting [9]), 72000 nM; in series [1] (setting [10]), > 100000 nM; in series [4] (setting [8]), > 30000 nM; in series [4] (setting [9]), > 100000 nM; in series [4] (setting [10]) it was 81000 nM. The IC50 in series [5] (setting [8]) was > 30000 nM; in series [5] (setting [9]), > 100000 nM; in series [5] (setting [10]), > 100000 nM. Also, in [2], the “Reduction potential 1” value is −0.423 V vs. SCE. Further, in series [2], the “Reduction potential 2” value is listed as −0.828 V vs. SCE. Further, in series [3] (setting [11]), the “Growth delay” value was 2.4 days. The “Maximum % weight loss” value in [3] (setting [11]) is reported as 0%.

As to `N.N.[Cl][Pt][Cl]` [Cisplatin], the “% cell survival” value with MCF7 [Breast] (cisplatin 0.1 μM alone (compound 0 μM)) was 107.4% and 110.8%; in the series with MCF7 [Breast] (cisplatin 0.3 μM alone (compound 0 μM)) it was 76% and 91.3%; in the series on MCF7 [Breast] (setting [12]), 72.4% and 70.3%; with M 14 [melanoma] (setting [12]), 85.6% and 97.7%; in the series with M 14 [melanoma] (setting [14]), 77.1% and 84.8%; in the series with M 14 [melanoma] (setting [15]), 58.3% and 63.3%. Also, the “% cell survival” value with A2780 [ovarian] (setting [12]) is 49.5% and 52.5%; in the series with A2780 [ovarian] (setting [14]) it was 19.6% and 19.2%; in the series with A2780 [ovarian] (setting [15]), 4.8% and 5.8%; in series [7] (setting [15]), 36.3% and 39.7%; in [7] (cisplatin 30 μM alone (compound 0 μM)), 8.7% and 8.6%; in series [7] (cisplatin 100 μM alone (compound 0 μM)), −0.5% and 1.1%. Moreover, the half-maximal inhibitory concentration (IC50) in series [1] (setting [8]) worked out at 2300 nM; in series [1] (setting [9]) it was 2300 nM; in [1] (setting [10]) it was 2500 nM; in series [1] (setting [13]), 2400 nM; in series [4] (setting [8]), 2400 nM; in series [4] (setting [9]), 1300 nM. For the same compound, the IC50 in [4] (setting [10]) was 700 nM; in [4] (setting [13]) it was 1500 nM; in series [5] (setting [8]) it was 1100 nM; in [5] (setting [9]), 1000 nM; in [5] (setting [10]), 900 nM; in series [5] (setting [13]), 1000 nM. The “Growth delay” value in series [3] (10 mg/kg, i.p., d 0) is 5.1 days. Besides, in series [3] (10 mg/kg, i.p., d 0), the “Maximum % weight loss” value was determined as 8.0%. Besides, the “weight loss of tumour bearing mice” value in series [3] (xenograft studies, FIG. 6) is on record as “significant weight loss”.
